Square brackets hold non-standard residues; d marks the D form. Peptide text beside a SMILES is read from it. ξ: configuration not given here. ξHpg = NC(C(=O)O)c1ccc(O)cc1
Test system: Tyrosine--tRNA ligase (Staphylococcus aureus)
Assay: Compound was tested for inhibition of Staphylococcus aureus tyrosyl tRNA Synthetase; NI=No inhibition

Row | Structure (SMILES) | IC50
1 | N[C@@H](Cc1ccc(O)cc1)C(=O)N[C@@H](C(=O)O)c1ccccc1 | No inhibition
2 | COC(=O)C(NC(=O)[C@@H](N)Cc1ccc(O)cc1)c1ccc(O)cc1 (some centres not stated) (H-Tyr-[ξHpg]-OMe) | No inhibition

Reference: ChEMBL document CHEMBL1132002, “Interaction of tyrosyl aryl dipeptides with S. aureus tyrosyl tRNA synthetase: inhibition and crystal structure of a complex” (Bioorg Med Chem Lett, 1999)
